# Laboratory results published in PubChem BioAssay AID1963852 (Molecular Pharmacology Branch, DTP, NCI, 2024).
# “And” between values parts separate entries of the source, which are not always exact repeats. Equal entries are not always repeated.
# System: 282377-053-R-J1-PDC complex spheroid viability
# Test: Anticancer human tumor 282377-053-R-J1-PDC patient-derived colon adenocarcinoma cell line growth inhibition [POLQ]
# Conditions: for viability, T/C: stronger effect = lower value
# Procedure: Multicellular complex tumor spheroid response to Polymerase (POL) inhibitors (novobiocin, ART-558, RP6685) in combination with a variety of drugs and investigational agents in selected tumor cell lines
# The POL inhibitors (novobiocin, ART-558, and RP6685) were evaluated both individually and in combination with standard of care and investigational anticancer small molecules within a complex spheroid model of solid tumors. . Complex spheroids include a stromal component modeled by human endothelial cells (HUVEC) and fibroblasts modeled by human mesenchymal stem cells (MSCs). The concentration ranges selected for each drug and investigational agent were based upon clinically achievable concentrations if the clinical Cmax of the agent was known.
# Compounds. The drugs and investigational agents: novobiocin (NSC847541), ART-558 (NSC835418), RP-6685 (NSC848927), peposertib (NSC802822), ceralasertib (NSC780249), elimusertib (NSC800525), camonsertib (NSC841442), AZD-1390 (NSC803789), olaparib (NSC753686), talazoparib (NSC767125), rucaparib (NSC756644), sotorasib (NSC818433), MRTX-1133 (NSC836407), SN-38 (NSC673596), topotecan (NSC609699), epotoside (NSC141540), doxorubicin (NSC123127), gemcitabine (NSC613327), 5-fluorouracil (NSC19893), paclitaxel (NSC125973), vemurafenib (NSC761431), MSA-2 (NSC828583), SN-011 (NSC837082), adavosertib (NSC754352), prexasertib (NSC758257), carboplatin (NSC241240) and oxaliplatin (NSC266046), were obtained from the National Cancer Institute (NCI) Developmental Therapeutics Program Chemical Repository (21). The FDA-approved anticancer drug set is available from the Developmental Therapeutics Program at https://dtp.cancer.gov/organization/dscb/obtaining/. […] The stock solutions were prepared in dimethyl sulfoxide (DMSO, Sigma-Aldrich, St. Louis, MO, cat. D2650), except for the platinum compounds which were prepared in saline (Quality Biological, Gaithersburg, MD, cat. 114-055-101), at 800-fold the tested concentration and stored at -70 degrees C prior to their use. All drugs and investigational agents were tested over a range starting from a high concentration at or near the clinical Cmax and decreasing in half-log increments. If the clinical Cmax for an agent had not been determined, the highest concentration tested was 10 microM, except for SN-38, which was tested at a high concentration of 1 microM.
# Cell Culture. All cells were maintained in an incubator at 37 degrees C and 5% CO2 with 95% humidity. The PDC lines were cultured according to standard operating procedures established by the NCI PDMR (https://pdmr.cancer.gov). Table 3 of the manuscript, lists the cell lines along with the number of the three cell types plated to form the mct-spheroids and media for tumor cell growth. After thawing, all PDC lines, except 997537-175-T-J1-PDC and 415267-285-R-J2-PDC, were cultured in Matrigel-coated flasks prepared with a working solution of 1X Ham's F-12 nutrient mix, without supplementation (Thermo Fisher Scientific, cat. 11765054), 100 U/mL penicillin-streptomycin (Thermo Fisher Scientific, cat. 15140122), and 2.5% Matrigel (Corning Inc., Corning, NY, cat. 354248) for the first three passages. The two PDC lines 997537-175-T-J1-PDC and 415267-285-R-J2-PDC were cultured on uncoated flasks. The 857933-349-R-J2-PDC line was cultured in 6C/Colon 1B media containing advanced DMEM/F-12 (Thermo Fisher Scientific, cat. 12634028), 10 mM HEPES (Thermo Fisher Scientific, cat. 15630080), 1X GlutaMAX supplement (Thermo Fisher Scientific, cat. 35050061), 0.1 mg/mL primocin (InvivoGen, San Diego, CA, cat. ant-pm-2), 10% defined fetal bovine serum, heat inactivated (HyClone Laboratories Inc., Logan, UT, cat. SH30070.03HI), 50% L-WRN conditioned media (ATCC, cat. CRL-3276), 1.25 mM N-Acetyl-L-cysteine (Sigma-Aldrich, cat. A9165), 10 mM nicotinamide (Sigma-Aldrich, cat. N0636), 1X B-27 supplement (Thermo Fisher Scientific, cat. 17504044), 1X N-2 supplement (Thermo Fisher Scientific, cat. […]
# [1] = curve of first compound, second compound 0.0316 µM
# [2] = curve of first compound, second compound 0.1 µM
# [3] = curve of first compound, second compound 0.316 µM
# [4] = curve of first compound, second compound 1 µM
# [5] = curve of first compound, second compound 3.16 µM
# [6] = curve of first compound, second compound 10 µM
# [7] = second compound 0.0316 µM, first compound 0.00316 µM
# [8] = second compound 0.0316 µM, first compound 0.01 µM
# [9] = second compound 0.0316 µM, first compound 0.0316 µM
# [10] = second compound 0.0316 µM, first compound 0.1 µM
# [11] = second compound 0.0316 µM, first compound 0.316 µM
# [12] = second compound 0.0316 µM, first compound 1 µM
# [13] = second compound 0.1 µM, first compound 0.00316 µM
# [14] = second compound 0.1 µM, first compound 0.01 µM
# [15] = second compound 0.1 µM, first compound 0.0316 µM
# [16] = second compound 0.1 µM, first compound 0.1 µM
# [17] = second compound 0.1 µM, first compound 0.316 µM
# [18] = second compound 0.1 µM, first compound 1 µM
# [19] = second compound 0.316 µM, first compound 0.00316 µM
# [20] = second compound 0.316 µM, first compound 0.01 µM
# [21] = second compound 0.316 µM, first compound 0.0316 µM
# [22] = second compound 0.316 µM, first compound 0.1 µM
# [23] = second compound 0.316 µM, first compound 0.316 µM
# [24] = second compound 0.316 µM, first compound 1 µM
# [25] = second compound 1 µM, first compound 0.00316 µM
# [26] = second compound 1 µM, first compound 0.01 µM
# [27] = second compound 1 µM, first compound 0.0316 µM
# [28] = second compound 1 µM, first compound 0.1 µM
# [29] = second compound 1 µM, first compound 0.316 µM
# [30] = second compound 1 µM, first compound 1 µM
# [31] = second compound 3.16 µM, first compound 0.00316 µM
# [32] = second compound 3.16 µM, first compound 0.01 µM
# [33] = second compound 3.16 µM, first compound 0.0316 µM
# [34] = second compound 3.16 µM, first compound 0.1 µM
# [35] = second compound 3.16 µM, first compound 0.316 µM
# [36] = second compound 3.16 µM, first compound 1 µM
# [37] = second compound 10 µM, first compound 0.00316 µM
# [38] = second compound 10 µM, first compound 0.01 µM
# [39] = second compound 10 µM, first compound 0.0316 µM
# [40] = second compound 10 µM, first compound 0.1 µM
# [41] = second compound 10 µM, first compound 0.316 µM
# [42] = second compound 10 µM, first compound 1 µM
# 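Note: spheroids exposed to compounds for seven days.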
# 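Throughout, for viability, T/C: 100% = DMSO vehicle control viability.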
compound,measurement,setting,value
C=CCn1c(=O)c2cnc(Nc3ccc(N4CCN(C)CC4)cc3)nc2n1-c1cccc(C(C)(C)O)n1 + COC1C(OC(N)=O)C(O)C(Oc2ccc3c(O)c(NC(=O)c4ccc(O)c(CC=C(C)C)c4)c(=O)oc3c2C)OC1(C)C,IC50,[1],> 1000 nM
same,IC50,[2],> 1000 nM
same,IC50,[3],> 1000 nM
same,IC50,[4],> 1000 nM
same,IC50,[5],> 1000 nM
same,IC50,[6],> 1000 nM
same,"viability, T/C",[7],85.2%
same,"viability, T/C",[8],97.7%
same,"viability, T/C",[9],147%
same,"viability, T/C",[10],120%
same,"viability, T/C",[11],91.7%
same,"viability, T/C",[12],64.7%
same,"viability, T/C",[13],122%
same,"viability, T/C",[14],108%
same,"viability, T/C",[15],94.4%
same,"viability, T/C",[16],118%
same,"viability, T/C",[17],99.1%
same,"viability, T/C",[18],89.9%
same,"viability, T/C",[19],113%
same,"viability, T/C",[20],109%
same,"viability, T/C",[21],134%
same,"viability, T/C",[22],96.3%
same,"viability, T/C",[23],98.7%
same,"viability, T/C",[24],81.7%
same,"viability, T/C",[25],114%
same,"viability, T/C",[26],90.5%
same,"viability, T/C",[27],93.1%
same,"viability, T/C",[28],109%
same,"viability, T/C",[29],110%
same,"viability, T/C",[30],67.8%
same,"viability, T/C",[31],118%
same,"viability, T/C",[32],120%
same,"viability, T/C",[33],78.4%
same,"viability, T/C",[34],91.5%
same,"viability, T/C",[35],105%
same,"viability, T/C",[36],76.4%
same,"viability, T/C",[37],88.5%
same,"viability, T/C",[38],91.8%
same,"viability, T/C",[39],87.2%
same,"viability, T/C",[40],102%
same,"viability, T/C",[41],96.7%
same,"viability, T/C",[42],75.5%
COc1cccc(OCCCN)c1-c1cc(Nc2cnc(C#N)cn2)n[nH]1 + Cc1cccc(N(C)C(=O)C2C(O)CCN2c2nc(C)cc(C(F)(F)F)c2C#N)c1,IC50,[1],632 nM
same,IC50,[2],559 nM
same,IC50,[3],> 1000 nM
same,IC50,[4],545 nM
same,IC50,[5],300 nM
same,IC50,[6],395 nM
same,"viability, T/C",[7],102%
same,"viability, T/C",[8],98.5%
same,"viability, T/C",[9],85.8%
same,"viability, T/C",[10],74.5%
same,"viability, T/C",[11],60.9%
same,"viability, T/C",[12],43.1%
same,"viability, T/C",[13],100%
same,"viability, T/C",[14],95.4%
same,"viability, T/C",[15],97%
same,"viability, T/C",[16],73.4%
same,"viability, T/C",[17],60%
same,"viability, T/C",[18],41.5%
same,"viability, T/C",[19],91%
same,"viability, T/C",[20],88.5%
same,"viability, T/C",[21],86.1%
same,"viability, T/C",[22],64.2%
same,"viability, T/C",[23],55.7%
same,"viability, T/C",[24],49.2%
same,"viability, T/C",[25],109%
same,"viability, T/C",[26],90.2%
same,"viability, T/C",[27],72.9%
same,"viability, T/C",[28],59%
same,"viability, T/C",[29],57.3%
same,"viability, T/C",[30],45.1%
same,"viability, T/C",[31],95.9%
same,"viability, T/C",[32],102%
same,"viability, T/C",[33],84.7%
same,"viability, T/C",[34],65.7%
same,"viability, T/C",[35],51.8%
same,"viability, T/C",[36],39.4%
same,"viability, T/C",[37],85.3%
same,"viability, T/C",[38],90.1%
same,"viability, T/C",[39],72.3%
same,"viability, T/C",[40],61.8%
same,"viability, T/C",[41],55.8%
same,"viability, T/C",[42],39.6%
COc1cc2cc(C(=O)CCC(=O)O)sc2cc1OC,"viability, T/C",compound 0.0316 µM,94.6% and 86.1% and 105%
same,"viability, T/C",compound 0.1 µM,98.1% and 93.6% and 93.2%
same,"viability, T/C",compound 0.316 µM,108% and 97% and 105%
same,"viability, T/C",compound 1 µM,111% and 96.9% and 98.6%
same,"viability, T/C",compound 3.16 µM,103% and 107% and 127%
same,"viability, T/C",compound 10 µM,93.6% and 102% and 101%
same,IC50,curve of compound,> 10000 nM
